We go through seven compounds from US9683934B2, “Terahertz spectroscopy for predicting stability of amorphous drugs” (Cambridge Enterprise Limited, priority 2013, dated 2017).

For data set [1] the following is noted: known from earlier investigations; cited from earlier work.
The nature of data set [2]: Glass-transition temperature, Tg. It counts as physicochemical.
Data set [3] can be described thus: Terahertz time-domain spectroscopy (THz-TDS) dielectric losses of polyalcohols, linear fits ε″(T/Tg)=A+BT/Tg. It counts as physicochemical. The conditions noted are these: for B3, linear coefficient of ε″(T/Tg)=A+BT/Tg in region (iii) / B1, linear coefficient of ε″(T/Tg)=A+BT/Tg in region (i) / B2, linear coefficient of ε″(T/Tg)=A+BT/Tg in region (ii): 1 THz, brackets = standard deviation at last decimal place; for B3, linear coefficient of ε″(T/Tg)=A+BT/Tg in region (iii): above Tg; for B1, linear coefficient of ε″(T/Tg)=A+BT/Tg in region (i): below about 0.6 Tg; for B2, linear coefficient of ε″(T/Tg)=A+BT/Tg in region (ii): between about 0.6 Tg and Tg; for Tα, crossover point of linear fits from region (ii) to region (iii) / Tβ, crossover point of linear fits from region (i) to region (ii) / Tβ/Tg: dielectric losses at 1 THz. The source says:
In these examples, systematic THz-TDS study allows direct access to the complex dielectric function for the frequency range of 0.1-3 THz, over a wide range of temperatures. For these experiments, the samples were melted (except glycerol, which is liquid at room temperature), loaded into a continuous-flow cryostat and cooled at a rate of approximately 25 K·min^−1 to 80 K, followed by subsequent heating by 10 K increments to 310 K. Spectra were acquired using a THz-TDS setup operating in transmission geometry. All four polyalcohols were purchased from Sigma-Aldrich with >99% purity. The samples were used without further purification. […] The solid lines represent linear fits to the data in regions (i) below a transition temperature of about 0.6 Tg, (ii) between the transition temperature and Tg, and (iii), above Tg. The dashed vertical lines highlight the temperatures 0.6Tg and Tg, respectively. Tβ and Tα represent the crossover points (changes in gradient) of the linear fits from region (i) to region (ii), and from region (ii) to region (iii), respectively. […] The temperature dependence of ∈″(v) at v=1 THz is shown in FIG. 6 for all four polyalcohol materials. Here, we use the rescaled temperature T/Tg on the abscissa to compare the common features of the glassy state between the different polyalcohols. Three absorption regimes can be resolved in all samples: (i) temperature-independent losses; ii) a weak temperature dependence of losses below Tg; and iii) a strong temperature dependence of losses above Tg, as proposed previously. More detailed information was extracted by fitting the data points with an empirical linear fit, viz. ∈″(T/Tg)=A+BT/Tg, in each of the respective temperature regions. In Table I, we summarize the crossover temperatures Tβ and Tα between regions (i)-(ii) and (ii)-(iii), respectively, together with the respective gradients B1,2,3 obtained separately for each region, (i), (ii) and (iii). For all samples, Tα corresponds to Tg, the temperature above which the temperature-dependent part of ∈″(v) becomes dominated by the primary dielectric relaxation.

Data set [4] can be described thus: Terahertz absorption coefficient of amorphous paracetamol and indomethacin at 1 THz versus T/Tg. The settings on record: transmission. It counts as physicochemical. An excerpt: FIG. 3 plots the results of the characterisation of these materials. FIG. 3 plots the absorption coefficient for terahertz radiation (α/cm^−1) measured in transmission through the material at 1 THz, against temperature (plotted as T/Tg) for each material. As set out in the Summary of the Invention, the rate of change of the loss of EM radiation with temperature (the gradient of the graph in FIG. 3) may then be assessed, or measured, and as appropriate compared with a predetermined value in order to achieve a quantitative, or relative, characterisation of the stability of the amorphous material as described below. In FIG. 3, the plotted results for indomethacin show two distinct linear regions, firstly a small and constant rate of change, or gradient, for the absorption of the radiation below Tg, and secondly a marked change to a higher rate of change, or gradient, above Tg. By contrast the plotted results for paracetamol show three different linear regions, namely a low rate of change below a transition temperature of about 0.6 Tg, a higher rate of change between 0.6 Tg and Tg, and a still higher rate of change above Tg.

For data set [5] the following is noted: cited from earlier work; for stability of the glass (amorphous phase): known from direct measurements of crystallisation during storage; for resistance to crystallisation of the amorphous material below Tg: stored below Tg.
[6] abbreviates: trehalose/glycerol mixtures by glycerol weight concentration, Table 3.

SMILES strings stand for the structures.

Consider `OC[C@@H](O)[C@H](O)CO` [threitol], for which, in data set [1], the “fragility index, m” value is listed as 79. Besides, the Tg in data set [2] (polyalcohols, Table 1) is -46.8 °C. In addition, in data set [3], the “B3, linear coefficient of ε″(T/Tg)=A+BT/Tg in region (iii)” value (shortened to “B3, linear coefficient”) was 0.43(15); the “B1, linear coefficient of ε″(T/Tg)=A+BT/Tg in region (i)” value (shortened to “B1, linear coefficient”) was 0.07(1); the “B2, linear coefficient of ε″(T/Tg)=A+BT/Tg in region (ii)” value (“B2, linear coefficient” for short) is on record as 0.09(1); the “Tα, crossover point of linear fits from region (ii) to region (iii)” value (“Tα, crossover point of linear fits” for short) was found to be 228 K. Also, in data set [3], the “Tβ, crossover point of linear fits from region (i) to region (ii)” value (shortened to “Tβ, crossover point of linear fits”) came to 147 K and the Tβ/Tg was 0.65. The “temperature above which the sample recrystallised” value in data set [3] (during heating in the THz-TDS run) was “above 250 K”.

`OC[C@@H](O)[C@@H](O)[C@H](O)[C@@H](O)CO` [sorbitol]: the “fragility index, m” value in data set [1] was 128. For the same compound, in data set [2] (polyalcohols, Table 1), the Tg was -4.8 °C. Also, in data set [3], the “B3, linear coefficient” value was 1.92(5); the “B1, linear coefficient” value is recorded as 0.02(2); the “B2, linear coefficient” value was 0.34(2); the “Tα, crossover point of linear fits” value is 265 K. In addition, in data set [3], the “Tβ, crossover point of linear fits” value was 150 K and the Tβ/Tg is 0.56. Further, the “stability of the amorphous material indicated by gradient in region (ii) and changes in gradient” value in data set [3] (FIG. 5) is on record as “relatively poor stability”.

For the compound `OCC(O)CO` [glycerol], the “fragility index, m” value in data set [1] is given as 57. Also, the Tg in data set [2] (polyalcohols, Table 1) is -81.4 °C. The Tg in data set [2] (setting [6]) was -83 °C. In data set [3], the “B3, linear coefficient” value is reported as 0.64(1); the “B1, linear coefficient” value is on record as 0.03(1); the “Tα, crossover point of linear fits” value stood at 189 K.

For the compound `OC[C@H]1O[C@H](O[C@H]2O[C@H](CO)[C@@H](O)[C@H](O)[C@H]2O)[C@H](O)[C@@H](O)[C@@H]1O` [0%, trehalose], in data set [2] (setting [6]), the Tg was found to be 115 °C.

In the case of `OC[C@@H](O)[C@H](O)[C@@H](O)CO` [xylitol], the “fragility index, m” value in data set [1] is recorded as 94. This compound also came in with a Tg in data set [2] (polyalcohols, Table 1) of -25.3 °C. In data set [3], the “B3, linear coefficient” value was 0.82(4); the “B1, linear coefficient” value is 0.06(1); the “B2, linear coefficient” value is listed as 0.13(3); the “Tα, crossover point of linear fits” value turned out to be 248 K. In data set [3], the “Tβ, crossover point of linear fits” value is listed as 167 K and the Tβ/Tg is recorded as 0.68.

In the case of `COc1ccc2c(c1)c(CC(=O)O)c(C)n2C(=O)c1ccc(Cl)cc1` [indomethacin], the “thermal change in absorption of terahertz radiation between 0.6 Tg-1.0 Tg” value in data set [4] is “very low”. Also, in data set [5], the “stability of the glass (amorphous phase)” value was “very good stability” and the “resistance to crystallisation of the amorphous material below Tg” value is on record as “much more stable”.

In the case of `CC(=O)Nc1ccc(O)cc1` [paracetamol], the “thermal change in absorption of terahertz radiation between 0.6 Tg-1.0 Tg” value in data set [4] is given as “well developed”. Moreover, in data set [5], the “stability of the glass (amorphous phase)” value is given as “poor stability” and the “resistance to crystallisation of the amorphous material below Tg” value was “crystallises rather readily”.
